From article PMC9241959 (Chemical Science, 2022)

Molecular target: Phaseolus vulgaris erythroagglutinin (PHA-E) (Phaseolus vulgaris, UniProt P05088)
Experiment: glycan microarray, fluorescence
Format: binding
Conditions: labelled compound: immobilised AEAB conjugate at reducing end

Sequence of Phaseolus vulgaris erythroagglutinin (PHA-E) (P05088 22-275 limits assumed): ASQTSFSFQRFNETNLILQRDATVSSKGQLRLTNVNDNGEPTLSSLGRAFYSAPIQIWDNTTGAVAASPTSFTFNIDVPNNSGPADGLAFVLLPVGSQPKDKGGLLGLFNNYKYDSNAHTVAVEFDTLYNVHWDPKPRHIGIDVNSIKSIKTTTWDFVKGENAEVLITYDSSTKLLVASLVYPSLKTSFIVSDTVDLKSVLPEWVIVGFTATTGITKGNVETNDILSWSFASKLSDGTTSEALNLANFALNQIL

CC(=O)N[C@H]1[C@H](O[C@H]2[C@H](O)[C@@H](NC(C)=O)C(O)O[C@@H]2CO)O[C@H](CO)[C@@H](O[C@@H]2O[C@H](CO[C@H]3O[C@H](CO)[C@@H](O)[C@H](O)[C@@H]3O[C@@H]3O[C@H](CO)[C@@H](O)[C@H](O)[C@H]3NC(C)=O)[C@@H](O[C@@H]3O[C@H](CO)[C@@H](O)[C@H](O)[C@H]3NC(C)=O)[C@H](O[C@H]3O[C@H](CO)[C@@H](O)[C@H](O)[C@@H]3O[C@@H]3O[C@H](CO)[C@@H](O)[C@H](O)[C@H]3NC(C)=O)[C@@H]2O)[C@@H]1O (stereo partly shown) [compound 1, agalacto bisected N-glycan 1]
RFU at 1 ug/mL lectin: 9197 RFU
